Assay results: patent US7361643B2, “Methods for inhibiting angiogenesis” (University of Puerto Rico, priority 2000, dated 2008)
Entries after “also recorded” stand apart in the source; their conditions may differ.

System: bovine adrenal medullary microvascular endothelial cells
Assay: Capillary endothelial cell growth and proliferation (cell count in hemacytometer)
Assay type: cell-based
Description: Cells in the amount of 2.0×10^4 were seeded per well in 24-well clusters in 1 ml complete EMEM containing 10% (v/v) serum and allowed to grow for 72 hours. Media were removed and the cells were washed twice with phosphate-buffer saline, pH 7.4 (PBS). Cells were synchronized by incubating for 48 hours in 2 mM hydroxyurea in serum-free EMEM with glutamine (2 mM) and one-third of penicillin-streptomycin used in a regular culture condition, followed by incubating 24 hours in serum-free EMEM, as discussed in CAO et al., “Modified Method of Mammalian Cell Synchronization Improves Yield and Degree of Synchronization”, Exp. Cell Res., 193:405-410 (1991), the disclosure of which is herein incorporated by reference in its entirety.
For proliferation assay, cells were trypsinized and counted in a hemacytometer. Viability of cells was determined by trypan blue (0.4% (v/v)) exclusion. Statistical analysis was carried out by StatView II software (Macintosh). Quantitation of cellular differentiation was carried out by observing under a Nikon AlphaShot inverted microscope, and counting the number of capillary lumen-like structures in five randomly selected fields per sample.
Synchronized cells, as described in Example 1, were cultured at 37° C. in complete EMEM containing fetal bovine serum (1% (v/v), 2% (v/v), or 10% (v/v), or complete EMEM with 2% (v/v) fetal bovine serum containing 1 ng/ml −100 ng/ml of bFGF/FGF-2, or containing 0.5 μg/ml to 5.0 μg/ml tunicamycin (lot number 10922120-07 from Boehringer-Mannheim, Indianapolis, Ind.). In each case, the cellular growth and proliferation was monitored by trypan blue exclusion, by counting the cell number, and by their ability to process through the cell cycle by flow cytometry.
Proliferation and Differentiation of Capillary Endothelial Cells: 2.0×10^4 cells were seeded per well in 24-well clusters in 1 ml complete EMEM containing 10% (v/v) serum and allowed to grow for 72 hours. Media were removed and the cells were washed twice with phosphate-buffer saline, pH 7.4 (PBS). […] Cells were routinely monitored by light microscopy. For proliferation assay, cells were trypsinized and counted in a hemacytometer. Viability of cells was determined by trypan blue (0.4% (v/v)) exclusion. […] Quantitation of cellular differentiation was carried out by observing under a Nikon AlphaShot inverted microscope, and counting the number of capillary lumen-like structures in five randomly selected fields per sample. The results were expressed as percent of its corresponding control after normalization of cell numbers. Analysis of Cell Cycle by Flow Cytometry: Assessment of the cell cycle was determined by propidium iodide staining of fixed cell nuclei followed by flow cytometry in a FacSort (Beckton Dickinson) according to the method of Krishan (1975) as modified by Vindelov (1977), as discussed in KRISHAN, “Rapid Flow Cytometric Analysis of Mammalian Cell Cycle by Propidium Iodide Staining”, J. Cell Biol. 66:188-195 (1975); and VINDELOV, “Flow Cytometric Analysis of Nuclear DNA in Cells from Solid Tumors and Cell Suspensions”, Virchows Arch (B), 24:227-231 (1977), the disclosures of which are herein incorporated by reference in their entireties. […]

## tunicamycin
1 μg/ml tunicamycin, 2% (v/v) serum, monitored up to 5 days
  effect on cell number / proliferation: reduced the cell proliferation; also recorded: number of cells started declining; also recorded: started declining, and almost disappeared
Tunicamycin 0.5-5.0 μg/ml
  reversibility of growth reduction: reversible
